What all share (assay): NCI-60 cell line screen, 48 h
The test system of test [1] is DLD-1 colon.
In test [2] the test system is DMS 114 small cell lung.
Test [3] relates to DMS 273 small cell lung.
The test system of test [4] is HOP-18 NSCLC.
Test [5] concerns KM20L2 colon.
For test [6], the system named is LXFL 529 NSCLC.
Test [7] concerns M19-MEL melanoma.
Test [8] relates to RXF-631 renal.
For test [9], the system named is SNB-78 CNS.

Here are results for 22 molecules from PubChem BioAssay (NCI).

SMILES strings stand for the structures.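 How tested: cells in 96-well plates exposed to compound for 48 hours at five concentrations. At the TGI there is no net growth.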

Turning to `CCc1ccccc1NC(=O)CC1NC(=O)CS1` (centres undefined), the TGI in [1], in test [2], in test [3], in test [4], in [5] and in test [6] was over 100 µM throughout. Also, the TGI in [7], in [8] and in test [9] was over 100 µM in each case.
With `Cc1ccc(NC(=O)/C(C#N)=C/c2ccccc2)c(C)c1`, the TGI in test [1], in test [2], in [3], in [4], in test [5] and in test [6] was over 100 µM throughout. Besides, the TGI in [7] and in test [9] was over 100 µM throughout.
Consider `O=c1ccc2ccccc2c2ccccc12`, for which the TGI in test [1] is 14.7 µM; in [2] it was 4.7 µM; in test [3] it was 14.3 µM; in test [4], 14.9 µM; in test [5], 3.85 µM; in test [6], 10.4 µM. The TGI in test [7] came out at 10.7 µM; in test [9], 17.7 µM.
For `CC(C)N(C(=O)C12C3C4C1C1C2C3C41C(=O)N(C(C)C)C(C)C)C(C)C` (centres undefined), the TGI in test [1], in test [2], in [3], in test [5], in test [6] and in test [7] was over 50 µM throughout. For the same molecule, the TGI in [8] and in [9] was over 50 µM in each case.
Consider `CSc1ccc2c(cc1=O)C(NC(=O)c1ccc(C#N)cc1)CCc1cc(O)c(O)c(O)c1-2` (centres undefined), for which the TGI was 70.2 µM in test [1]; 44.9 µM in test [2]; over 100 µM in test [3]; 45.5 µM in test [5]; 44.4 µM in test [6]; 39 µM in [7]. The TGI in test [8] and in test [9] was over 100 µM each time.
For the molecule `O=C(O)C12CC3CC(CC(F)(C3)C1)C2`, the TGI in test [1], in test [2], in test [3], in test [5], in test [6] and in test [7] was over 100 µM each time. In addition, the TGI in test [9] is over 100 µM.
`CN(C)CC(/C(Cc1ccccc1)=N\NC(=S)NN)c1ccccc1` (centres undefined): the TGI in [1], in [2], in test [3], in [5], in [6] and in test [7] was over 100 µM in each case. Further, the TGI in test [9] is over 100 µM.
Consider `CN(C)C(F)=PC(F)(F)F` (centres undefined), for which the TGI in test [1], in test [2], in [3], in [4], in [5] and in test [6] was over 100 µM throughout. Besides, the TGI in [7] and in test [9] was over 100 µM in each case.
Regarding `C#CCNC(=O)NC(CCCCNC(=O)OCc1ccccc1)C(=O)OCc1ccccc1` (centres undefined), the TGI was over 100 µM in [1]; over 100 µM in [2]; over 100 µM in [3]; over 68.2 µM in test [4]; over 100 µM in [5]; over 100 µM in test [6]. Also, the TGI in test [7] was found to be 27.6 µM; in test [9], 80.1 µM.
Consider `Nc1nc2ncn(CC(O)CO)c2c(=O)[nH]1` (centres undefined), for which the TGI in test [1], in test [2], in test [3], in test [4], in [5] and in test [6] was over 100 µM each time. In addition, the TGI in test [7], in test [8] and in test [9] was over 100 µM each time.
As for `COc1cc(-c2cc(=O)c3ccccc3[nH]2)cc(OC)c1OC`, the TGI in [1], in test [2], in [3], in test [5], in test [6] and in test [7] was over 75 µM each time. Further, the TGI in [9] was over 75 µM.
Regarding `O=c1ccn(/C=C/C(O)C(O)CO)c(=O)[nH]1` (centres undefined), the TGI in [1], in test [2], in test [3], in test [4], in [5] and in [6] was over 100 µM each time. Moreover, the TGI in test [7], in [8] and in test [9] was over 100 µM throughout.
For `CC(=O)Nc1ccc(S(=O)(=O)NN(C)S(=O)(=O)c2ccc(C)cc2)cc1`, the TGI in test [1], in test [2], in test [5] and in test [7] was over 100 µM in each case.
As to `N#CNC1=NC(N)C(c2nc3ccccc3[nH]2)=C(CCCC(=O)Nc2cccc([N+](=O)[O-])c2)N1` (centres undefined), the TGI in test [1], in [2], in [3], in test [4], in [5] and in test [6] was over 100 µM throughout. The same molecule yielded a TGI in test [7] of over 100 µM.
Regarding `NC(CCCCNCc1ccccc1O)C(=O)O` (centres undefined), the TGI in test [1], in test [2], in test [3], in test [4], in [5] and in test [6] was over 100 µM in each case. Besides, the TGI in test [7] and in test [9] was over 100 µM throughout.
Regarding `Oc1cccnc1/C=N/OCc1ccccc1`, the TGI in test [1], in test [2], in [3], in [5], in test [6] and in [7] was over 100 µM throughout. This molecule also returned a TGI in [9] of over 100 µM.
As for `O=C(Nc1nc2ncn(CCO)c2c(=O)[nH]1)c1ccccc1`, the TGI in [1], in test [2], in test [3], in [4], in [5] and in [6] was over 100 µM each time. The TGI in [7] and in [9] was over 100 µM throughout.
Regarding `Cc1nnc(N/N=C(/C(=O)C(C#N)c2ccc(Cl)cc2)C(C#N)c2ccc(Cl)cc2)n1N` (centres undefined), the TGI in [1] turned out to be 42.4 µM; in test [2] it was 31.4 µM; in test [3], 34 µM; in test [4], 30 µM; in test [5], 41.2 µM; in test [6] it was 26.6 µM. The TGI in test [8] is 35.4 µM; in [9], 51.3 µM.
With `Cn1nc(-c2ccccc2)c(C(=O)/C=C/c2ccc(Cl)cc2)c(N2CCOCC2)c1=O`, the TGI turned out to be 13.6 µM in [1]; 9.83 µM in test [2]; 13.8 µM in test [3]; 17 µM in test [4]; 13.8 µM in test [5]; 9.89 µM in test [6]. In addition, the TGI was 20.7 µM in [7] and 23.2 µM in test [8].
As for `COC(=O)CCC(NC(=S)N/N=C(\C)c1cnccn1)C(=O)OC` (centres undefined), the TGI in test [1] was over 100 µM; in [2], 54.2 µM; in test [4], over 100 µM; in test [5], over 100 µM; in test [6], over 100 µM; in test [7], over 100 µM. Besides, the TGI in [8] and in test [9] was over 100 µM throughout.
In the case of `Nc1nc2c(ncn2CCCC(c2ccccc2)P(=O)(O)O)c(=O)[nH]1` (centres undefined), the TGI in [1], in test [2], in [3], in test [4], in test [5] and in test [6] was over 100 µM throughout. In addition, the TGI in test [7] and in [9] was over 100 µM throughout.
As to `CSC(=N)N1N=C2/C(=C/c3ccccc3)CCC[C@H]2[C@H]1c1ccccc1`, the TGI in test [1] amounted to 14.5 µM; in [2], 7.83 µM; in test [3], 11.8 µM; in [4], 14.3 µM; in [5] it was 5.97 µM; in test [6], 16.7 µM. Also, the TGI in test [9] was found to be 34.6 µM.
